Experimental data as given in patent publication US20200352947A1, “USE OF SEROTONERGIC DRUGS TO TREAT VIRUS-INDUCED THROMBOCYTOPENIA” (NATIONAL UNIVERSITY OF SINGAPORE, priority 2017, published 2020).

What was measured:
human platelets = experiment: Platelet activation (CD41/CD62P flow cytometry) in stimulated human whole blood; type: cell-based; details: ketanserin 100 nM or 500 nM, 15 min; n=4
Protocol: (A) Whole blood from healthy human volunteers was isolated and stimulated with DENV2, serotonin, or DENV2+serotonin for 15 min. Cells were then fixed and stained for platelet markers CD41 and CD62P and analyzed by flow cytometry. DENV raised the activation levels of platelets. […] (B) Human whole blood was stimulated with DENV2, mast cells (MCs) or DENV2+MCs in the presence of vehicle or ketanserin (100 nM or 500 nM) for 15 min prior to assessment of platelet activation. […] Mean values are presented and error bars represent the SEM. P values were determined by one-way ANOVA; *P<0.05, ** P<0.01, ***P<0.001, ****P<0.0001, ns: non-significant.
Additionally, products from DENV-stimulated human mast cells promoted platelet activation, dependent on platelet 5HT2A receptor, since this effect was abolished by ketanserin (FIG. 9B). […] Furthermore, ketanserin is effective in reversing DENV-induced human platelet activation.

DENV2-infected mice [1] = experiment: Platelet aggregation in peripheral blood smears of DENV2-infected WT mice; type: in vivo; details: 10^6 pfu DENV2 IP, ketanserin 8 mg/kg IP 1 hour after infection, blood 24 hours post-infection, vs vehicle 1% DMSO
Protocol: Images depict peripheral blood smears from DENV2-infected mice. Mice were infected via intraperitoneal route (IP) with 10^6 pfu. (A) Mock infected mice. (B) DENV-infected mice treated with vehicle control IP. (C) DENV-infected mice given ketanserin 8 mg/kg IP. Blood was taken via cheek bleed 24 hours post-infection, smeared onto glass slides, stained with eosin and methylene blue and viewed under light microscopy using a 100× magnification lens. Dengue induces platelet aggregation, while administration of ketanserin prevents this. A few individual platelets are indicated by arrows; platelet aggregates are circled by dashed lines. Scale bar=10 μm.
To test whether ketanserin could block platelet aggregation and/or prevent thrombocytopenia, a mouse model of dengue infection was used. WT mice were infected via intraperitoneal route (IP) with 10^6 pfu of DENV2 and, after 1 hour, treated with vehicle (1% DMSO) or ketanserin (8 mg/kg) IP. Blood was taken via cheek bleed 24 hours post-infection, smeared onto glass slides, stained with eosin and methylene blue and viewed under light microscopy using a 100× magnification lens. […] Selected red blood cells (RBC), platelets (arrows) and platelet aggregates (dashed lines) are labeled.

[2] = test system: DENV2-infected IFNαβγ-KO mice; experiment: Platelet counts in DENV2-infected mice deficient in interferon signalling; type: in vivo; details: 10^6 pfu DENV2 IP, ketanserin 8 mg/kg IP once daily, 24 and 72 hours post-infection, n=5
Protocol: (§1) Platelet counts of DENV2 infected mice. Mice deficient in interferon signalling (IFNαβγ-KO) were infected via intraperitoneal route (IP) with 10^6 plaque forming units (pfu) and were given either vehicle (1% DMSO) or ketanserin 8 mg/kg P. Blood was taken via cheek bleed 24 and 72 hours post-infection and platelet counts were measured using an automated hematology analyzer. DENV2 infection induced thrombocytopenia, but ketanserin treatment was able to prevent thrombocytopenia (n=5). Mean values are presented and error bars represent the SEM. P values were determined by Student's unpaired t test; ****P<0.0001.
These mice are commonly used in the study of DENV as their deficiency in interferon signaling results in sustained DENV replication [St John, A. L., et al., eLife 2, e00481 (2013)]. IFNαβγ-KO mice were infected via the intraperitoneal route (IP) with 10^6 plaque forming units (pfu) of DENV2 and were given either vehicle (1% DMSO) or ketanserin (8 mg/kg) IP once daily thereafter. Blood was taken via cheek bleed 24 and 72 hours post-infection and platelet counts were measured using an automated hematology analyzer.

DENV2-infected mice [3] = experiment: Platelet counts (thrombocytopenia) in DENV2-infected WT mice; type: in vivo; details: 10^6 pfu DENV2 IP, 24 hours post-infection, n=5
Protocol: as §1, with “Mice” for “Mice deficient in interferon signalling (IFNαβγ-KO)”, “mg/kg IP.” for “mg/kg P.”, “24” for “24 and 72”, “infection induces” for “infection induced”, “treatment is” for “treatment was”, “test; ***P<0.001,” for “test;”
Platelet counts of DENV2 infected mice. Mice were infected IP with 10^6 pfu of DENV2 and were given either vehicle, the 5HT1A antagonist WAY-100135, or either of the 5HT2A antagonists, ketanserin and sarpogrelate. Blood was taken via cheek bleed 24 hours post-infection and platelet counts were measured using an automated hematology analyzer. DENV2 infection induced thrombocytopenia that was able to be prevented through administration of serotonin receptor antagonists (n=5). Mean values are presented and error bars represent the SEM. P values were determined by one-way ANOVA; ***p<0.001, ****P<0.0001.
WT mice were infected via intraperitoneal route (IP) with 10^6 plaque forming units (pfu) of DENV2 and were given either vehicle (1% DMSO) or ketanserin (8 mg/kg) IP. Blood was taken via cheek bleed 24 hours post-infection and platelet counts were measured using an automated hematology analyzer.
One limitation of the experimental protocol in Examples 10 and 11 is that the vehicle used to deliver ketanserin in mice, DMSO, can itself interfere with platelet aggregation [Rosenblum, W. I. & El-Sabban. F. Stroke 13, 35-39 (1982)]. This difference can be observed by comparing the severity of thrombocytopenia in dengue-infected mice between FIGS. 1 and 10. Accordingly, newer serotonin receptor antagonists that are more soluble in saline were tested, to determine whether a similar effect is seen even without the confounding effects of DMSO. Mice were infected IP with 10^6 pfu of DENV2 and were given either vehicle, the 5HT1A antagonist WAY-100135 (3 mg/kg), or one of the 5HT2A antagonists ketanserin (8 mg/kg) or sarpogrelate (3 mg/kg). Blood was taken via cheek bleed 24 hours post-infection and platelet counts were measured using an automated hematology analyzer.

JEV-infected mice = experiment: Platelet counts in JEV-infected mice; type: in vivo; details: 10^6 pfu JEV IP, ketanserin 8 mg/kg at 1 hour post-infection, 24 hours, n=5
Protocol: Platelet counts of JEV infected mice. Mice were infected with 10^6 pfu of JEV intraperitoneally and were vehicle- or ketanserin-treated (8 mg/kg) at 1 hour post-infection. At 24 hours, blood was collected and platelet counts were measured. The drop in platelet counts induced by JEV was prevented by ketanserin treatment (n=5). Mean values are presented and error bars represent the SEM. P values were determined by Student's unpaired t test; *p<0.05.
Japanese encephalitis virus (JEV) is a flavivirus related to dengue, so the ability of ketanserin to inhibit JEV-induced thrombocytopenia was also tested. Mice were infected with 10^6 pfu of JEV IP, and were treated at 1 hour post-infection with vehicle (1% DMSO) or ketanserin (8 mg/kg). At 24 hours, blood was collected and platelet counts were measured. The reduction in platelet counts induced by JEV was inhibited by ketanserin treatment (FIG. 14).

`O=C(c1ccc(F)cc1)C1CCN(CCn2c(=O)[nH]c3ccccc3c2=O)CC1` [ketanserin, 3-[2-[4-(4-fluorobenzoyl)piperidin-1-yl]ethyl]-1H-quinazoline-2,4-dione] was tested. Which “platelet activation in human whole blood stimulated with DENV2+mast cells” value (human platelets) did it give?
Its value is “abolished the significant increase in platelet activation”.

And the “DENV-induced platelet aggregation in peripheral blood smears” value (DENV2-infected mice [1])?
Its value is “prevented”.

And the “platelet counts (DENV2-induced thrombocytopenia)” value [2]?
The value was “able to maintain the initial normal platelet count”.

And the “platelet counts (DENV2-induced thrombocytopenia)” value (DENV2-infected mice [3]; WT mice, ketanserin 8 mg/kg IP, vehicle 1% DMSO)?
Its value is “did not show significantly reduced platelets compared to control”.

And the “platelet counts (DENV2-induced thrombocytopenia)” value (DENV2-infected mice [3]; mice, WAY-100135 3 mg/kg, ketanserin 8 mg/kg or sarpogrelate 3 mg/kg)?
The value was “prevented”.

And the “reduction in platelet counts induced by JEV” value (JEV-infected mice)?
Its value is “inhibited”.
